Laboratory results published in patent US10487078B2, “Compositions and methods of targeting mutant K-RAS” (NantBio, Inc., priority 2015, dated 2019).
Like-named read-outs stand apart in the source and are kept apart here.

How the values were obtained:
K-Ras wild-type = K-Ras wild-type (Homo sapiens, UniProt P01116); test: G-LISA Ras activation assay, 293H cells transfected with Ras wild-type, EGF-stimulated; assay type: cell-based; conditions: 1 hour treatment, 100 ng/ml EGF
Protocol: (§1) 293H cells were seeded in 6-wells at 0.6×10^6 cells per well and transfected next day with 5 μg of Ras wild-type, or G12C, G12D or G12V mutant DNA plasmid vector using transfection reagent Lipofectamine 3000. Next day cells were treated with 3.125-50 μM of Ras compounds for 1 hour. Wild-type transfected cells were subsequently treated with 100 ng/ml EGF for 2 minutes. Cells were washed once in ice-cold PBS, lysed in complete lysis buffer on ice, and processed by G-LISA according to Cytoskeleton protocol.
(§2) In-cell selectivity of the compounds presented herein against a specific K-ras mutant form can also be tested as shown in the following exemplary experiment. 293H cells were seeded in 6-wells and transfected next day with 5 μg of Ras wild-type, or G12C, G12D or G12V mutant DNA plasmid vector. Next day cells were treated with 3.125-50 μM of Ras compounds for 1 hour. Wild-type transfected cells were subsequently treated with 100 ng/ml EGF for 2 minutes. Cells were washed once in ice-cold PBS, lysed in complete lysis buffer on ice, and processed by G-LISA according to Cytoskeleton protocol. FIG. 1 depicts exemplary results.
as §1, with “In still further experiments, the inventors tested selected compounds in a G-LISA assay to compare IC50 values for wild-type and various mutant K-Ras (G12D, G12V) using the following general protocol: 293H” for “293H”

K-ras G12D = K-ras G12D (Homo sapiens, UniProt P01116, G12D); test: G-LISA Ras activation assay, 293H cells transfected with G12D mutant; assay type: cell-based; conditions: 1 hour treatment
Protocol: as §1, §2
as §1, with “In still further experiments, the inventors tested selected compounds in a G-LISA assay to compare IC50 values for wild-type and various mutant K-Ras (G12D, G12V) using the following general protocol: 293H” for “293H”

K-ras G12V = K-ras G12V (Homo sapiens, UniProt P01116, G12V); test: G-LISA Ras activation assay, 293H cells transfected with G12V mutant; assay type: cell-based; conditions: 1 hour treatment
Protocol: as §1, §2
as §1, with “In still further experiments, the inventors tested selected compounds in a G-LISA assay to compare IC50 values for wild-type and various mutant K-Ras (G12D, G12V) using the following general protocol: 293H” for “293H”

K-ras G12V (GTP) = K-ras G12V (GTP) (Homo sapiens, UniProt P01116, G12V); test: SPR assay (surface plasmon resonance); assay type: binding; conditions: 25° C., 8% DMSO
Protocol: (§3) Selected compounds were also tested for selective binding to wild type and mutant forms of K-ras in the active and non-active state using surface plasmon resonance, and exemplary results are shown in Table 4.
(§4) The running buffer in all surface plasmon resonance experiments was 10 mM HEPES pH 7.4, 150 mM NaCl, 0.1% (v/v) Tween-20, 1 mM MgCl2, 8% DMSO. Experiments were carried out on the SensiQ Pioneer optical biosensor. The flow rate was set at 50 μL/min and the temperature was 25° C. kRAS protein was immobilized to the Nickel-NTA charged surface of the SensiQ HisCap chip (sensiqtech.com) giving a yield of 4000 RU. Small molecules were prepared in 100% DMSO and further diluted to 8% DMSO in running buffer. The small molecules were injected using the Taylor diffusion gradient injection mode (OneStep®, see e.g., Evaluation of Taylor dispersion injections: Determining kinetic/affinity interaction constants and diffusion coefficients in label-free biosensing, John G. Quinn, Analytical Biochemistry (2011)). Buffer blanks were injected for double referencing purposes. Data processing and model fitting were performed using Qdat.

K-ras G12D (GTP) = K-ras G12D (GTP) (Homo sapiens, UniProt P01116, G12D); test: SPR assay (surface plasmon resonance); assay type: binding; conditions: 25° C., 8% DMSO
Protocol: as §3, §4

Panc1 (G12D) cells = test: 72 hr cell viability (CellTiterBlue); assay type: cell-based; conditions: GI50, 72 hr
Protocol: (§5) Viability assays were performed on exemplary compounds and Table 2 below lists exemplary results for selected compounds tested on wild type (Ishikawa) and various K-ras mutants (Panc1-G12D; Panc10.05-G12D; HCT116-G13D).
(§6) Cells are counted and seeded at 1000 cells/36 ul medium/well into 384-well microplates. Cells are returned to 37° C. CO2 incubator for 18 hr. Drug is made as 200× in DMSO and diluted into medium to 10×. To each well is added 4 ul 10× drug, and plates are returned to the incubator. Final assay DMSO concentration is 0.5%. After 72 hr, 8 ul CellTiterBlue (Promega) is added to each well. After 3 hr, fluorescence (Ex550/Em590) is determined on the Victor Plate Reader (Perkin Elmer). Assay range is determined by DMSO control (100% viability) and 100 uM tamoxifen (0% viability). GI50 values are calculated using Graphpad Prism.

Panc10.05 (G12D) cells = test: 72 hr cell viability (CellTiterBlue); assay type: cell-based; conditions: GI50, 72 hr
Protocol: as §5, §6

[1] = test system: Erk phosphorylation in Panc1 (G12D) cells; test: In-Cell Western Erk phosphorylation; assay type: cell-based; conditions: EC50, one hour treatment; read-out: In-Cell Western Erk phosporylation Panc1 (G12D)
Protocol: (§7) In-cell phosphorylation assays for Erk and Akt were performed on various of the compounds and exemplary results are shown in Table 3 below using […] and Panc10.05 cell lines for G12D K-ras mutants.
(§8) Cells are seeded in complete medium into black sided, clear-bottom 384-well microplates at 3000 cells/[…]/well. Plates are returned to 37° C. CO2 incubator for 18 hr. Drug is made as 200× in DMSO and diluted into medium to 10×. To each well is added 4 ul 10× test article or controls, and plates are returned to the incubator. Final assay DMSO concentration is 0.5%. After one hour, cells are fixed in formaldehyde, rinsed & permeabilized with triton X-100, and blocked with BSA/Goat serum blocking solution. Primary phospho-Akt and phospho-ERK antibodies are added and plates are incubated overnight at 4° C. Plates are rinsed with Tween-20 wash buffer and secondary antibody (Goat anti-rabbit, Thermofisher) is added. After 2 hours, plates are rinsed in Tween-20 wash buffer, and then PBS. Plates are imaged on the Celigo (Nexcelom) and cellular fluorescence is quantitated. Full inhibition of phospho-Akt is achieved with 1 uM BEZ235 (Sellekchem), while full inhibition of phospho-ERK is achieved with 1 uM MEK Inhibitor II Calbiochem). EC50 values are calculated using Graphpad Prism.

[2] = test system: Erk phosphorylation in Panc10.05 (G12D) cells; test: In-Cell Western Erk phosphorylation; assay type: cell-based; conditions: EC50, one hour treatment; read-out: In-Cell Western Erk phosporylation Panc10.05 (G12D)
Protocol: as §7, §8

[3] = test system: Akt phosphorylation in Panc1 (G12D) cells; test: In-Cell Western Akt phosphorylation; assay type: cell-based; conditions: EC50, one hour treatment; read-out: In-Cell Western Akt phosporylation Panc1 (G12D)
Protocol: as §7, §8

[4] = test system: Akt phosphorylation in Panc10.05 (G12D) cells; test: In-Cell Western Akt phosphorylation; assay type: cell-based; conditions: EC50, one hour treatment; read-out: In-Cell Western Akt phosporylation Panc10.05 (G12D)
Protocol: as §7, §8

[5] = test system: Ishikawa (K-Ras wild-type) cells; test: 72 hr cell viability (CellTiterBlue); assay type: cell-based; conditions: GI50, 72 hr
Protocol: as §5, §6

HCT116 (G13D) cells = test: 72 hr cell viability (CellTiterBlue); assay type: cell-based; conditions: GI50, 72 hr
Protocol: as §5, §6

[6] = Table 1, G-LISA, 293H transfected, read-out: IC50 (μM) Wild-type
[7] = Table 5, IC50, 293H transfected, read-out: G-LISA (wild type)
[8] = Table 1, G-LISA, 293H transfected, read-out: IC50 (μM) G12D
[9] = Table 5, IC50, 293H transfected, read-out: G-LISA (G12D)
[10] = Table 1, G-LISA, 293H transfected, read-out: IC50 (μM) G12V
[11] = Table 5, IC50, 293H transfected, read-out: G-LISA (G12V)

| Compound | IC50 (K-Ras wild-type; [6]) [µM] | IC50 (K-Ras wild-type; [7]) [µM] | IC50 (K-ras G12D; [8]) [µM] | IC50 (K-ras G12D; [9]) [µM] | IC50 (K-ras G12V; [10]) [µM] | IC50 (K-ras G12V; [11]) [µM] | SPR Assay G12V (GTP) Kd (K-ras G12V (GTP)) | Kd (K-ras G12D (GTP)) [µM] | SPR Assay G12D (GTP) Rmax (K-ras G12D (GTP)) | Kd (K-ras G12V (GTP)) [µM] | SPR Assay G12V (GTP) Rmax (K-ras G12V (GTP)) | IC50 (Panc1 (G12D) cells) [µM] | IC50 (Panc10.05 (G12D) cells) [µM] | EC50 [1] [µM] | EC50 [2] [µM] | EC50 [3] [µM] | EC50 [4] [µM] | IC50 [5] [µM] | IC50 (HCT116 (G13D) cells) [µM] |
| --- | --- | --- | --- | --- | --- | --- | --- | --- | --- | --- | --- | --- | --- | --- | --- | --- | --- | --- | --- |
| CC(=O)Nc1ccc(-c2csc(NC(=O)c3sc(C)nc3C)n2)cc1 [Compound 4663] | 7 | 7 | 15 | > 25 | 32 | 32 | No binding/fit |  |  |  |  |  |  |  |  |  |  |  |  |
| Cc1nc(C)c(C(=O)Nc2nc(-c3ccc4c(c3)CCC(=O)O4)cs2)s1 [Compound 4664] |  |  | > 25 | > 25 |  |  |  | 4.8 | Rmax = 8.73 | 36.8 | Rmax = 143 ± 1 |  |  |  |  |  |  |  |  |
| O=C1CCc2cc(-c3csc(NC(=O)c4scnc4-c4ccccc4)n3)ccc2N1 [Compound 4800] |  |  | > 25 | > 25 |  |  |  | 27.2 | Rmax = 389 ± 1 | 15.2 | Rmax = 57.1 ± 0.2 |  |  |  |  |  |  |  |  |
| Cc1nc(C)c(CNc2nc(-c3ccc4c(c3)CCC(=O)N4)cs2)s1 [Compound 4856] |  |  | > 25 |  |  |  |  |  |  |  |  | ≥ 25 | ≥ 25 | 7 | 19 | > 25 | > 25 |  |  |
| Cc1ccccc1C(=O)Nc1nc(-c2ccc3c(c2)CCC(=O)N3)cs1 [Compound 4874] |  |  | 16 | 16 |  |  |  |  |  |  |  | 12 |  | > 25 | 14 | 25 | > 25 | 3 |  |
| COCc1nc(C)c(C(=O)Nc2nc(-c3ccc4c(c3)CCC(=O)N4)cs2)s1 [Compound 4876] |  |  |  |  |  |  |  |  |  |  |  | 13 |  | 9 | 17 | 20 | > 25 | 3 |  |
| Cc1nc(C2CC2)sc1C(=O)Nc1nc(-c2ccc3c(c2)CCC(=O)N3)cs1 [Compound 4877] | 16 | 16 | 6 | 6 | 9 | 9 |  |  |  |  |  | 5 |  | 3 | 3 | 7 | 17 | 1.2 |  |
| Cc1nc(-c2ccccc2)sc1C(=O)Nc1nc(-c2ccc3c(c2)CCC(=O)N3)cs1 [Compound 4878] |  |  | 19 | 19 | > 25 | > 25 |  |  |  |  |  | 7 |  | 19 | 13 | 26 | > 25 | 5 |  |
| Cc1nc(C)c(C(=O)Nc2nc(-c3ccc4c(c3)CCC(=O)N4Cc3ccccc3)cs2)s1 [Compound 4888] | 11.3 | 11.3 | 6 | 6 | 14.5 | 14.5 |  |  |  |  |  | 9 | 4 | 4 | 2 | 5 | 3 | 5 | 7 |
| Cc1nc(C)c(C(=O)N(Cc2ccccc2)c2nc(-c3ccc4c(c3)CCC(=O)N4Cc3ccccc3)cs2)s1 [Compound 4889] |  |  |  |  |  |  |  |  |  |  |  | ≥ 25 | ≥ 25 | > 25 | > 25 | > 25 | > 25 | 14 | 21 |
| CCc1nc(C)c(C(=O)Nc2nc(-c3ccc4c(c3)CCC(=O)N4)cs2)s1 [Compound 4891] | 11.5 |  | 5 |  | 9.3 |  |  |  |  |  |  | 11 | 4 | 2 | 2 | 7 | 3 | 12 | 13 |
| Cc1nc(C2CCOC2)sc1C(=O)Nc1nc(-c2ccc3c(c2)CCC(=O)N3)cs1 (stereo not shown) [Compound 4892] |  |  | 6.5 |  |  |  |  |  |  |  |  | 17 | 6 | 5 | 2 | 12 | 6 | 14 | 14 |
| Cc1nc(Cc2ccccn2)sc1C(=O)Nc1nc(-c2ccc3c(c2)CCC(=O)N3)cs1 [Compound 4893] |  |  |  |  |  |  |  |  |  |  |  | ≥ 25 | ≥ 25 | > 25 | > 25 | > 25 | > 25 | ≥ 25 | ≥ 25 |
| Cc1nc(-n2ccnc2)sc1C(=O)Nc1nc(-c2ccc3c(c2)CCC(=O)N3)cs1 [Compound 4894] |  |  |  |  |  |  |  |  |  |  |  | ≥ 25 | ≥ 25 | > 25 | > 25 | > 25 | > 25 | ≥ 25 | ≥ 25 |
| Cc1nc(N2CCOCC2)sc1C(=O)Nc1nc(-c2ccc3c(c2)CCC(=O)N3)cs1 [Compound 4895] |  |  |  |  |  |  |  |  |  |  |  | ≥ 25 | ≥ 25 | > 25 | > 25 | > 25 | > 25 | ≥ 25 | ≥ 25 |
| COCCOc1nc(C)c(C(=O)Nc2nc(-c3ccc4c(c3)CCC(=O)N4)cs2)s1 [Compound 4896] |  |  |  |  |  |  |  |  |  |  |  | ≥ 25 | ≥ 25 | 8 | 8 | 14 | 12 | 19 | 22 |
